This is an account of results in patent publication US20150038438A1, “ANTIBACTERIAL COMPOUNDS AND METHODS FOR USE” (PTC THERAPEUTICS, INC., priority 2011, published 2015).

Holding throughout (assay): Antibacterial activity, microbroth dilution method (MIC)
(In general: Dilution methods test growth across graded concentrations, often in twofold steps.)

In test [1] the test system is Gram-positive Staphylococcus aureus (S. aureus) 29213. Type of test: cell-based. The settings on record: Staphylococcus aureus, Gram-positive S. aureus 29213. The method in brief:
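Microbroth dilution was used. MIC, in μg/mL, is the lowest drug concentration preventing macroscopically visible growth under the test conditions.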

Test [2] relates to super sensitive Gram-negative Escherichia coli (E. coli) BAS849. It counts as cell-based. The note with it: Escherichia coli; super sensitive Gram-negative E. coli BAS849; microbroth dilution; read-out: MIC, E. coli BAS849. The method in brief: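 Broth microdilution against S. aureus 29213, E. coli 25922 and hypersensitive E. coli BAS849. MIC in μg/mL is the lowest drug concentration preventing macroscopically visible growth under test conditions.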

Test [3] deals with control Gram-negative E. coli 25922 strain. It counts as cell-based, Escherichia coli. The settings on record: Escherichia coli. An outline of the steps: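 Growth inhibition by microbroth dilution. MIC = lowest μg/mL with no visible growth. Strain 25922 is the control Gram-negative; BAS849 is hypersensitive.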

Converted amounts (≈) assume the structure as drawn.

Take `CN(C)C1CCN(c2ccc3c(c2)OCCc2cc(C(=O)O)c(=O)[nH]c2-3)C1.Cl` (stereo not drawn) [Cpd 82, 9-(3-(dimethylamino)pyrrolidin-1-yl)-2-oxo-1,2,5,6-tetrahydrobenzo[2,3]oxepino[4,5-b]pyridine-3-carboxylic acid hydrochloride]: the minimum inhibitory concentration (MIC) (commonly the lowest concentration that inhibits growth of the organism) in test [1] is 12.5 to 150 µg/mL; in test [2], 3.5 to 12.5 µg/mL; in test [3], 12.5 to 150 µg/mL.
`CCNCc1cc2cc3c(cc2n1C)C(C)CCc1c-3[nH]c(=O)c(C(=O)O)c1O.Cl` (stereo not drawn) [Cpd 63, 10-((ethylamino)methyl)-4-hydroxy-7,9-dimethyl-2-oxo-1,2,5,6,7,9-hexahydropyrido[3′,2′:6,7]cyclohepta[1,2-f]indole-3-carboxylic acid hydrochloride]: the minimal inhibitory concentration (MIC) was in the range of 12.5 to 150 µg/mL in test [1], 1 to 3.5 µg/mL in test [2] and 3.5 to 12.5 µg/mL in test [3].
For `CC1Oc2cc(Cl)ccc2-c2c1cc(C(=O)O)c(=O)n2Cc1ccccc1` (stereo not drawn) [Cpd 72, 1-benzyl-8-chloro-5-methyl-2-oxo-2,5-dihydro-1H-chromeno[4,3-b]pyridine-3-carboxylic acid], in that order: 3.5 to 12.5 µg/mL (≈ 9.17 to 32.7 µM), 3.5 to 12.5 µg/mL (≈ 9.17 to 32.7 µM) and 12.5 to 150 µg/mL (≈ 32.7 to 393 µM).
For `CN(C)Cc1cc2cc3c(cc2n1C)CCCc1c-3[nH]c(=O)c(C(=O)O)c1O.Cl` [Cpd 48, 10-((dimethylamino)methyl)-4-hydroxy-9-methyl-2-oxo-1,2,5,6,7,9-hexahydropyrido[3′,2′:6,7]cyclohepta[1,2-f]indole-3-carboxylic acid hydrochloride], in that order: 3.5 to 12.5 µg/mL, less than 1 µg/mL and less than 1 µg/mL.
For `CC1CCc2cc(N3CCC(N(C)C)C3)ccc2-c2[nH]c(=O)c(C(=O)O)c(O)c21.Cl` (stereo not drawn) [Cpd 12, 9-(3-(dimethylamino)pyrrolidin-1-yl)-4-hydroxy-5-methyl-2-oxo-2,5,6,7-tetrahydro-1H-benzo[6,7]cyclohepta[1,2-b]pyridine-3-carboxylic acid hydrochloride], in that order: 12.5 to 150 µg/mL, 1 to 3.5 µg/mL and 12.5 to 150 µg/mL.
In the case of `Cl.Cl.Cn1c(CNCCN)cc2cc3c(cc21)CCCc1c-3[nH]c(=O)c(C(=O)O)c1O` [Cpd 144, 10-(((2-aminoethyl)amino)methyl)-4-hydroxy-9-methyl-2-oxo-1,2,5,6,7,9-hexahydropyrido[3′,2′:6,7]cyclohepta[1,2-f]indole-3-carboxylic acid dihydrochloride], the MIC is 12.5 to 150 µg/mL in test [1], 3.5 to 12.5 µg/mL in test [2] and 12.5 to 150 µg/mL in test [3].
Regarding `Cl.Cl.Cn1c(CN2CC[C@H](N)C2)cc2cc3c(cc21)CCCc1c-3[nH]c(=O)c(C(=O)O)c1O` [Cpd 49, (S)-10-((3-aminopyrrolidin-1-yl)methyl)-4-hydroxy-9-methyl-2-oxo-1,2,5,6,7,9-hexahydropyrido[3′,2′:6,7]cyclohepta[1,2-f]indole-3-carboxylic acid dihydrochloride], the MIC is 12.5 to 150 µg/mL in test [1], 1 to 3.5 µg/mL in test [2] and 3.5 to 12.5 µg/mL in test [3].
For `CN(C)C1CCN(c2ccc3c(c2)OCCc2c-3[nH]c(=O)c(C(=O)O)c2O)C1.Cl` (stereo not drawn) [Cpd 78, 9-(3-(dimethylamino)pyrrolidin-1-yl)-4-hydroxy-2-oxo-1,2,5,6-tetrahydrobenzo[2,3]oxepino[4,5-b]pyridine-3-carboxylic acid hydrochloride], in that order: 12.5 to 150 µg/mL, 1 to 3.5 µg/mL and 12.5 to 150 µg/mL.
For `Cn1c2c(c(O)c(C(=O)O)c1=O)CC=Cc1cc3c(ccn3C)cc1-2` [Cpd 131, 4-hydroxy-1,9-dimethyl-2-oxo-1,2,5,9-tetrahydropyrido[3′,2′:6,7]cyclohepta[1,2-f]indole-3-carboxylic acid], in that order: 3.5 to 12.5 µg/mL (≈ 10.4 to 37.2 µM), less than 1 µg/mL and 12.5 to 150 µg/mL (≈ 37.2 to 446 µM).
As to `CN(C)c1ccc2c(c1)CCCc1cc(C(=O)O)c(=O)[nH]c1-2` [Cpd 2, 9-(dimethylamino)-2-oxo-2,5,6,7-tetrahydro-1H-benzo[6,7]cyclohepta[1,2-b]pyridine-3-carboxylic acid], the minimal inhibitory concentration (MIC) in test [1] was 12.5 to 150 µg/mL (≈ 41.9 to 503 µM); in test [2] it was less than 1 µg/mL; in test [3], 12.5 to 150 µg/mL (≈ 41.9 to 503 µM).
On to `CNCc1cc2cc3c(cc2n1C)OCCc1c-3[nH]c(=O)c(C(=O)O)c1O.Cl` [Cpd 88, 4-hydroxy-9-methyl-10-((methylamino)methyl)-2-oxo-2,5,6,9-tetrahydro-1H-pyrido[2′,3′:4,5]oxepino[3,2-f]indole-3-carboxylic acid hydrochloride], for which the MIC in test [1] was 12.5 to 150 µg/mL; in test [2], less than 1 µg/mL; in test [3], 1 to 3.5 µg/mL.
For `CC(CN(C)C)NCc1cc2cc3c(cc2n1C)CCCc1c-3[nH]c(=O)c(C(=O)O)c1O.Cl.Cl` (stereo not drawn) [Cpd 160, 10-(((1-(dimethylamino)propan-2-yl)amino)methyl)-4-hydroxy-9-methyl-2-oxo-1,2,5,6,7,9-hexahydropyrido[3′,2′:6,7]cyclohepta[1,2-f]indole-3-carboxylic acid dihydrochloride], in that order: 12.5 to 150 µg/mL, less than 1 µg/mL and 3.5 to 12.5 µg/mL.
For the compound `CC(=O)NC1CCN(Cc2cc3cc4c(cc3n2C)CCCc2c-4[nH]c(=O)c(C(=O)O)c2O)C1.Cl` (stereo not drawn) [Cpd 159, 10-((3-acetamidopyrrolidin-1-yl)methyl)-4-hydroxy-9-methyl-2-oxo-1,2,5,6,7,9-hexahydropyrido[3′,2′:6,7]cyclohepta[1,2-f]indole-3-carboxylic acid hydrochloride], the MIC in test [1] was 12.5 to 150 µg/mL; in test [2], less than 1 µg/mL; in test [3] it was 3.5 to 12.5 µg/mL.
For `CCNCc1cc2cc3c(cc2n1C)CCC(C)c1c-3[nH]c(=O)c(C(=O)O)c1O.Cl` (stereo not drawn) [Cpd 67, 10-((ethylamino)methyl)-4-hydroxy-5,9-dimethyl-2-oxo-1,2,5,6,7,9-hexahydropyrido[3′,2′:6,7]cyclohepta[1,2-f]indole-3-carboxylic acid hydrochloride], in that order: 12.5 to 150 µg/mL, less than 1 µg/mL and 1 to 3.5 µg/mL.
For `Cl.Cn1c(CNCCO)cc2cc3c(cc21)OCCc1c-3[nH]c(=O)c(C(=O)O)c1O` [Cpd 177, 4-hydroxy-10-(((2-hydroxyethyl)amino)methyl)-9-methyl-2-oxo-2,5,6,9-tetrahydro-1H-pyrido[2′,3′:4,5]oxepino[3,2-f]indole-3-carboxylic acid hydrochloride], in that order: 12.5 to 150 µg/mL, less than 1 µg/mL and 12.5 to 150 µg/mL.
For `CC1Cc2cc(N(C)C)ccc2-c2[nH]c(=O)c(C(=O)O)c(O)c21` (stereo not drawn) [Cpd 108, 8-(dimethylamino)-4-hydroxy-5-methyl-2-oxo-1,2,5,6-tetrahydrobenzo[h]quinoline-3-carboxylic acid], in that order: 3.5 to 12.5 µg/mL (≈ 11.1 to 39.8 µM), less than 1 µg/mL and 12.5 to 150 µg/mL (≈ 39.8 to 477 µM).
As to `CN(C)CCN(C)Cc1cc2cc3c(cc2n1C)CCCc1c-3[nH]c(=O)c(C(=O)O)c1O.Cl.Cl` [Cpd 145, 10-(((2-(dimethylamino)ethyl)(methyl)amino)methyl)-4-hydroxy-9-methyl-2-oxo-1,2,5,6,7,9-hexahydropyrido[3′,2′:6,7]cyclohepta[1,2-f]indole-3-carboxylic acid dihydrochloride], the minimum inhibitory concentration (MIC) in test [1] was 12.5 to 150 µg/mL; in test [2] it was less than 1 µg/mL; in test [3] it was 12.5 to 150 µg/mL.
